Assay results from ChEMBL document CHEMBL6177980 (J Med Chem, 2025).
Converted amounts (≈) assume the structure as drawn. The source made the active and inactive calls. No cut-off for these calls is given here.

Experiments:
[1] = Cmax in fasted Sprague-Dawley rat at 16.5 mg/kg, po by LC-MS/MS analysis; assay type: ADME, organism-based; details: in vivo
[2] = AUC (0 to t) in fasted Sprague-Dawley rat at 16.5 mg/kg, po by LC-MS/MS analysis; assay type: ADME, organism-based; details: in vivo
[3] = Stability of compound at pH 1.5 assessed as change in purity at 1 mg/ml incubated for 4 hrs by HPLC analysis; assay type: physicochemical; details: buffer, pH 1.5, 4 h
[4] = Stability of compound at pH 1.5 assessed as change in purity at 1 mg/ml incubated for 12 hrs by HPLC analysis; assay type: physicochemical; details: buffer, pH 1.5, 12 h
[5] = Stability of compound at pH 1.5 assessed as change in purity at 1 mg/ml incubated for 24 hrs by HPLC analysis; assay type: physicochemical; details: buffer, pH 1.5, 24 h
[6] = Stability of compound at pH 4.0 assessed as change in purity at 1 mg/ml incubated for 4 hrs by HPLC analysis; assay type: physicochemical; details: buffer, pH 4, 4 h
[7] = Stability of compound at pH 4.0 assessed as change in purity at 1 mg/ml incubated for 12 hrs by HPLC analysis; assay type: physicochemical; details: buffer, pH 4, 12 h
[8] = Stability of compound at pH 4.0 assessed as change in purity at 1 mg/ml incubated for 24 hrs by HPLC analysis; assay type: physicochemical; details: buffer, pH 4, 24 h
[9] = Stability of compound at pH 6.8 assessed as change in purity at 1 mg/ml incubated for 4 hrs by HPLC analysis; assay type: physicochemical; details: buffer, pH 6.8, 4 h
[10] = Stability of compound at pH 6.8 assessed as change in purity at 1 mg/ml incubated for 12 hrs by HPLC analysis; assay type: physicochemical; details: buffer, pH 6.8, 12 h
[11] = Stability of compound at pH 6.8 assessed as change in purity at 1 mg/ml incubated for 24 hrs by HPLC analysis; assay type: physicochemical; details: buffer, pH 6.8, 24 h
[12] = system: Mammarenavirus choriomeningitidis; test: In vivo antiviral activity against LCMV infected in C57BL/6-Prf1tm1Sdz/J mouse assessed as improvement in body weight loss at 300 mg/kg, po qd treated for 7 days; assay type: functional, organism-based; details: time 7.0 day
[13] = system: Mammarenavirus choriomeningitidis; test: In vivo antiviral activity against LCMV infected in C57BL/6-Prf1tm1Sdz/J mouse assessed as animal survival at 300 mg/kg, po qd treated for 7 days; assay type: functional, organism-based; details: time 7.0 day
[14] = system: Mammarenavirus choriomeningitidis; test: In vivo antiviral activity against LCMV infected in C57BL/6-Prf1tm1Sdz/J mouse assessed as improvement in platelet count at 300 mg/kg, po qd treated for 7 days; assay type: functional, organism-based; details: time 7.0 day
[15] = system: Mammarenavirus choriomeningitidis; test: In vivo antiviral activity against LCMV infected in C57BL/6-Prf1tm1Sdz/J mouse assessed as improvement in lymphocytes percentage at 300 mg/kg, po qd treated for 7 days; assay type: functional, organism-based; details: time 7.0 day
[16] = Cmax in fasted Sprague-Dawley rat at 21 mg/kg, po by LC-MS/MS analysis; assay type: ADME, organism-based; details: in vivo
[17] = AUC (0 to t) in fasted Sprague-Dawley rat at 21 mg/kg, po by LC-MS/MS analysis; assay type: ADME, organism-based; details: in vivo
[18] = Oral bioavailability in fasted Cynomolgus monkey administered orally by LC-MS/MS analysis; assay type: ADME, organism-based, Macaca fascicularis; details: in vivo
[19] = Aqueous solubility of compound; assay type: physicochemical; details: aqueous medium
[20] = Cmax in fasted Sprague-Dawley rat at 20 mg/kg, po by LC-MS/MS analysis; assay type: ADME, organism-based; details: in vivo
[21] = AUC (0 to t) in fasted Sprague-Dawley rat at 20 mg/kg, po by LC-MS/MS analysis; assay type: ADME, organism-based; details: in vivo
[22] = Cmax in fasted Sprague-Dawley rat at 5 mg/kg, iv by LC-MS/MS analysis; assay type: ADME, organism-based; details: in vivo
[23] = AUC (0 to t) in fasted Sprague-Dawley rat at 5 mg/kg, iv by LC-MS/MS analysis; assay type: ADME, organism-based; details: in vivo
[24] = Cmax in fasted Sprague-Dawley rat at 10 mg/kg, po by LC-MS/MS analysis; assay type: ADME, organism-based; details: in vivo
[25] = AUC (0 to t) in fasted Sprague-Dawley rat at 10 mg/kg, po by LC-MS/MS analysis; assay type: ADME, organism-based; details: in vivo
[26] = Cmax in fasted Cynomolgus monkey at 2 mg/kg, iv by LC-MS/MS analysis; assay type: ADME, organism-based, Macaca fascicularis; details: in vivo
[27] = AUC (0 to t) in fasted Cynomolgus monkey at 2 mg/kg, iv by LC-MS/MS analysis; assay type: ADME, organism-based, Macaca fascicularis; details: in vivo
[28] = Half life in fasted Cynomolgus monkey at 2 mg/kg, iv by LC-MS/MS analysis; assay type: ADME, organism-based, Macaca fascicularis; details: in vivo
[29] = Cmax in fasted Cynomolgus monkey at 5 mg/kg, po by LC-MS/MS analysis; assay type: ADME, organism-based, Macaca fascicularis; details: in vivo
[30] = AUC (0 to t) in fasted Cynomolgus monkey at 5 mg/kg, po by LC-MS/MS analysis; assay type: ADME, organism-based, Macaca fascicularis; details: in vivo
[31] = Half life in fasted Cynomolgus monkey at 5 mg/kg, po by LC-MS/MS analysis; assay type: ADME, organism-based, Macaca fascicularis; details: in vivo
[32] = Oral bioavailability in fasted Cynomolgus monkey at 5 mg/kg by LC-MS/MS analysis; assay type: ADME, organism-based, Macaca fascicularis; details: in vivo
[33] = Stability in SGF assessed as compound degradation measured for 24 hrs by HPLC analysis; assay type: physicochemical; details: simulated gastric fluid (SGF), read-out: Drug degradation
[34] = Stability in SIF assessed as compound degradation measured for 24 hrs by HPLC analysis; assay type: physicochemical; details: simulated intestinal fluid (SIF), read-out: Drug degradation
[35] = Cmax in fasted Sprague-Dawley rat at 27 mg/kg, po by LC-MS/MS analysis; assay type: ADME, organism-based; details: in vivo
[36] = AUC (0 to t) in fasted Sprague-Dawley rat at 27 mg/kg, po by LC-MS/MS analysis; assay type: ADME, organism-based; details: in vivo
[37] = Cmax in fasted Sprague-Dawley rat at 15.5 mg/kg, po by LC-MS/MS analysis; assay type: ADME, organism-based; details: in vivo
[38] = AUC (0 to t) in fasted Sprague-Dawley rat at 15.5 mg/kg, po by LC-MS/MS analysis; assay type: ADME, organism-based; details: in vivo

| Structure (SMILES) | Activity [3] [%] | Activity [4] [%] | Activity [5] [%] | Activity [6] [%] | Activity [7] [%] | Activity [8] [%] | Activity [9] [%] | Activity [10] [%] | Activity [11] [%] | other results |
| --- | --- | --- | --- | --- | --- | --- | --- | --- | --- | --- |
| CCOC(=O)OCn1c(=O)ccn([C@@H]2O[C@](F)(COC(=O)C(C)C)[C@@H](O)[C@H]2O)c1=O |  |  |  |  |  |  |  |  |  | Cmax [1]: 2440 ng/mL; AUC(0-t) [2]: 15800 ng·h/mL |
| CC(C)C(=O)OCn1c(=O)ccn([C@@H]2O[C@](F)(COC(=O)C(C)C)[C@@H](OC(=O)C(C)C)[C@H]2OC(=O)C(C)C)c1=O | -1.5 | -3.7 | -10.8 | 0 | 0 | 0 | 0 | -0.4 | -1.8 |  |
| NC(=O)c1nc(F)cnc1O |  |  |  |  |  |  |  |  |  | Activity [12]: inactive; Activity [13]: inactive; Activity [14]: inactive; Activity [15]: inactive |
| CC(=O)O[C@H]1[C@H](n2ccc(=O)n(COC(=O)c3cccnc3)c2=O)O[C@](F)(COC(=O)C(C)C)[C@H]1OC(C)=O | -2 | -5.6 | -10.4 | -0.1 | -0.1 | -0.2 | -6.7 | -16.4 | -31 | Cmax [16]: 2190 ng/mL; AUC(0-t) [17]: 13500 ng·h/mL; bioavailability [18]: 86.4%; solubility [19]: 410 µg/mL (≈ 743 µM) |
| CC(=O)OC[C@@]1(F)O[C@@H](n2ccc(=O)n(COC(=O)c3cccnc3)c2=O)[C@H](OC(C)=O)[C@@H]1OC(C)=O | -3 | -8.5 | -15.7 | 0 | -0.1 | -0.1 | -1.6 | -4.3 | -8.6 | Cmax [20]: 3120 ng/mL; AUC(0-t) [21]: 15700 ng·h/mL; bioavailability [18]: 100%; solubility [19]: 700 µg/mL (≈ 1340 µM) |
| O=c1ccn([C@@H]2O[C@](F)(CO)[C@@H](O)[C@H]2O)c(=O)[nH]1 | -27.9 | -64.4 | -86.9 | -8.8 | -24.9 | -43.5 | -18.1 | -44.8 | -67.1 | Cmax [22]: 2900 ng/mL; AUC(0-t) [23]: 7810 ng·h/mL; Cmax [24]: 1740 ng/mL; AUC(0-t) [25]: 13000 ng·h/mL; Cmax [26]: 2530 ng/mL; AUC(0-t) [27]: 4830 ng·h/mL; half-life [28]: 4.34 h; Cmax [29]: 2850 ng/mL; AUC(0-t) [30]: 11600 ng·h/mL; half-life [31]: 5.13 h; bioavailability [32]: 62.9%; degraded at 24 h [33]: > 80%; degraded at 24 h [34]: > 80% |
| O=C(OCn1c(=O)ccn([C@@H]2O[C@](F)(COC(=O)c3cccnc3)[C@@H](OC(=O)c3cccnc3)[C@H]2OC(=O)c2cccnc2)c1=O)c1cccnc1 |  |  |  |  |  |  |  |  |  | Cmax [35]: 708 ng/mL; AUC(0-t) [36]: 9080 ng·h/mL |
| CCOC(=O)n1c(=O)ccn([C@@H]2O[C@](F)(COC(=O)C(C)C)[C@@H](O)[C@H]2O)c1=O |  |  |  |  |  |  |  |  |  | Cmax [37]: 569 ng/mL; AUC(0-t) [38]: 4650 ng·h/mL |
